The source made the active and inactive calls. No rule for the calls is given here.
Experiment: HCV RNA replicon replication inhibition, late-stage follow-up, HCV NS3 helicase inhibitor project, cell-based, luminescence (AID 463235)
Settings: HCV replicon cells, RNA blot hybridization, 3 days; for IC90: measured here: 90% replicon inhibition

SMILES	IC50	IC90
Cc1ccc(C(=O)C2=C(O)C(=O)N(Cc3ccco3)C2c2cccc(Cl)c2)o1 (centres undefined)	> 10 µM (inactive)	> 10 µM
COc1ccc(C=NNC(=O)c2cc(O)c(O)c(O)c2)cc1COc1ccc(C(=O)OCC(C)C)cc1	> 10 µM (inactive)	> 10 µM
CCOc1cccc(C2C(C(=O)c3ccc(C)o3)=C(O)C(=O)N2Cc2ccccc2)c1 (centres undefined)	> 10 µM (inactive)	> 10 µM
COc1cccc(-n2c(SCc3cc(=O)oc4cc(O)c(O)cc34)nc3ccccc3c2=O)c1	> 10 µM (inactive)	> 10 µM

Results, then the compound that gave them:

IC50	IC90	SMILES
> 10 µM (inactive)	> 10 µM	CCCCCOc1ccc(C2C(C(=O)c3ccc(C)o3)=C(O)C(=O)N2c2cc(C)on2)cc1 (centres undefined)
> 10 µM (inactive)	> 10 µM	COc1cc(C2C(C(=O)c3ccc(C)o3)=C(O)C(=O)N2c2cc(C)on2)ccc1OCc1ccccc1 (centres undefined)
> 10 µM (inactive)	> 10 µM	Cc1cc(N2C(=O)C(O)=C(C(=O)c3ccc(C)o3)C2c2ccc(OCc3ccccc3)cc2)no1 (centres undefined)

Reference: PubChem BioAssay AID463235 (The Scripps Research Institute Molecular Screening Center, 2010)
